Values of other authors as cited in patent US7655212B2, “Production of silver sulfate grains using a fluorinated additive” (Eastman Kodak Company, priority 2008, dated 2010).

Legend:
Details in all cases: in polymethylmethacrylate bone cement at 0.5% concentration
[1] = tested on: Staphylococcus aureus
[2] = tested on: Escherichia coli
[3] = tested on: Pseudomonas aeruginosa

[Cl][Ag] [Silver chloride]
significantly inhibit: inhibition of bacterial growth of Staphylococcus aureus [1] | inhibition of bacterial growth of Escherichia coli [2] | inhibition of bacterial growth of Pseudomonas aeruginosa [3]

O=S(=O)([O-])[O-].[Ag+].[Ag+] [silver sulfate]
significantly inhibit: inhibition of bacterial growth of Staphylococcus aureus [1] | inhibition of bacterial growth of Escherichia coli [2] | inhibition of bacterial growth of Pseudomonas aeruginosa [3]

silver oxide
significantly inhibit: inhibition of bacterial growth of Staphylococcus aureus [1] | inhibition of bacterial growth of Escherichia coli [2] | inhibition of bacterial growth of Pseudomonas aeruginosa [3]
